What was measured:
[1] = Empirical log P by UV-Vis assay; type: physicochemical; conditions: aqueous buffer; UV-Vis assay conditions
Solubility observations = type: physicochemical
HCT116 cells = test: Mass cytometry hypoxia labelling (130Te signal); type: cell-based
From the text: FIGS. 4A-E show a schematic representation and density maps and plots. FIG. 4A is a schematic representation of Telox/Telox2 cell labelling for analysis via mass cytometry on a second-generation CyTOF instrument. FIG. 4b) is a density map of signal event length vs. ^130Te signal (arbitrary units). FIG. 4c) is a density plot output from the top-right gate in b) of ^193Ir signal (arbitrary units) vs. ^103Rh signal (arbitrary units). More than 93% of detected events fall in the square gate. FIG. 4d) is a density plot output from the bottom-left gate in b) of ^193Ir signal (arbitrary units) vs. ^103Rh signal (arbitrary units). More than 89% of detected events fall in the square gate. FIG. 4e) is a population histograms of cell ^130Te content (arbitrary units). Oxygen concentrations are listed as numerical percentages, P=Pimonidazole (100 μM). Blue and red histograms are Pimonidazole-negative controls. Orange and green histograms are Pimonidazole- positive competition experiments. Note: warmer colors in density plots indicate higher cell population density.
FIGS. 8A and B show a) the absolute ^130Te signal as a function of concentration as determined by mass cytometry analysis of HCT116 cells incubated with the exemplary compound, Telox-2, for 3 hours in either near-anoxic (˜0% O2), hypoxic (˜1% O2) or normoxic (21% O2) atmosphere; and b) the signal-to-noise (fold-change) representation of the data presented in part a.
FIGS. 9A-D show a) Absolute ^130Te signal as a function of time as determined by mass cytometry analysis of HCT116 cells incubated with 10 μM of the exemplary compound,Telox-2 (constant exposure), in either near-anoxic (˜0% O2), hypoxic (˜1% O2) or normoxic (21% O2) atmosphere; b) the signal-to-noise (fold-change) representation of the data presented in part a; and c) the absolute ^130Te signal as a function of time as determined by mass cytometry analysis of HCT116 cells incubated with 10 μM Telox-2 for 3 hours followed by replacement of Telox-2-containing media with fresh media in either near-anoxic (˜0% O2), hypoxic (˜1% O2) or normoxic (21% O2) atmosphere; and d) the signal-to-noise (fold-change) representation of the data presented in part c.
HCT116 (500,000) cells were seeded in 60 mm plastic petri dishes (Corning Inc., NY) and incubated for 24 h at 37° C., 21% O2/5% CO2. The cells were transferred to hypoxia chambers (H35/H85 hypoxia workstation, Don Whitley Scientific) maintained at 1%/0.2% or <0.02% O2 for 3 h. Hypoxia experiments (<0.02% O2) were performed by seeding the cells in 60 mm glass plates (Corning Inc., NY).
HCT 116 cells (see sections i and ii) were incubated in media containing Telox or Telox2 (100 μM, added as a neat solution in sterile DMSO; final [DMSO]=0.1%) for 3 hours under atmosphere containing an appropriate concentration of O2. Following incubation, the media was removed, cells were washed with sterile PBS, and then separated from the incubation plate via trypsinization (37° C., 10 min) and gentle scraping. The cell suspension was pelleted and resuspended in PBS containing β-ME (1.0 mL, 100 mM). Cells were pelleted, resuspended in PBS (900 μL, no β-ME), and fixed with formaldehyde (100 μL, 37% solution) for 25 minutes. Following fixation, cells were pelleted, resuspended in PBS containing β-ME (1.0 mL, 100 mM), and pelleted once again. Cells were then resuspended in PBS ([…], no β-ME) and incubated with either the Ir-containing nucleic acid intercalator (hypoxic cells) or the Rh containing nucleic acid intercalator (normoxic cells) (10 μL, 100 μM solution in sterile PBS) for 20 minutes. Cells were then pelleted and resuspended in PBS (1.0 mL, no β-ME) twice. Cell pellets were then resuspended in PBS containing ^151/153EU beads (1/10 dilution of CyTOF® calibration beads, DVS Sciences, 1.0-2.5 mL depending on pellet size). The two cells samples were then combined (250 μL of each) and 250 μL of the resultant sample was injected onto a second-generation CyTOF® instrument for MC analysis. […]

O=[N+]([O-])c1nccn1CCc1ccc[te]1 [Telox-2, 2-nitro-1-(2-(tellurophen-2-yl)ethyl)-1H-imidazole]
logP [1]: 1.3
solubility, in words (Solubility observations): unusually high water solubility
signal-to-noise vs incubation time, constant exposure (HCT116 cells; HCT116, 10 μM, near-anoxic and moderately hypoxic vs normoxic control): enhanced as incubation time increases
signal-to-noise under moderately hypoxic conditions vs near-anoxic (HCT116 cells; HCT116, 1% O2): significantly lower
loss of probe-protein conjugates after pulsed exposure (HCT116 cells; HCT116, 3 hours exposure then fresh media up to additional 21 hours): exponential-type decay
optimal probe concentration to maximize signal-to-noise (HCT116 cells; HCT116, 3 hours, normoxic vs near-anoxic): 10 µM

From patent US10816552B2 (The Governing Council of the University of Toronto, priority 2014, dated 2020)
